This passage reports IC50 results from US8859574B2 (IRM LLC, priority 2008, dated 2014).

T1 sequence (P08069 999-1274 limits assumed): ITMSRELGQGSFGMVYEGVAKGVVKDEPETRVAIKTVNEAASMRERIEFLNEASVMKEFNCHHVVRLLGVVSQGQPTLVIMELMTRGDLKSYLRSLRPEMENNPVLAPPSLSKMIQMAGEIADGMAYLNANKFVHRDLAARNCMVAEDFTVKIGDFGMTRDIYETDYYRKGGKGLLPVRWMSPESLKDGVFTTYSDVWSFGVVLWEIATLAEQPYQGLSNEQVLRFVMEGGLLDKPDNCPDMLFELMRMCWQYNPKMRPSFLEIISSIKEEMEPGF

The test addresses T1, IGF-1R Ba/F3 (Homo sapiens, UniProt P08069).
T1 construct: fused on or other part: TEL- (or BCR-) IGF-1R in Ba/F3: the kinase part holds the site
As to the kind of experiment: Ba/F3 Cell Viability Inhibition Assay (IGF-1R Ba/F3). The format is cell-based, murine. The following applies: Tel-TK transformed Ba/F3 cells, 48 hours, Britelite luminescence. In short, it runs like this:
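A 48 h compound treatment at 37 °C (3750 cells/well) was followed by Britelite luminescence to measure viability. Cells were Ba/F3 pro-B cells, IL-3-independent via TEL-fused IGF-1R kinase transduction. A logistic fit gave IC50 as 50% viability relative to DMSO control.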
In the case of `CNC(=O)CN1CCC(c2cc(F)c(Nc3ncc(Cl)c(Nc4cc(C(F)(F)F)[nH]n4)n3)cc2C)CC1` [Compound 172, 2-(4-(4-(5-chloro-4-(5-(trifluoromethyl)-1H-pyrazol-3-ylamino)pyrimidin-2-ylamino)-5-fluoro-2-methylphenyl)piperidin-1-yl)-N-methylacetamide], the IC50 was found to be 0.069 µM.

Molecule `Cc1cc(Nc2nc(Nc3cc(Cl)c(C4CCN(C(=O)CN5CCC5)CC4)cc3C)ncc2Cl)n[nH]1` [Compound 96, 2-(azetidin-1-yl)-1-(4-(2-chloro-4-(5-chloro-4-(5-methyl-1H-pyrazol-3-ylamino)pyrimidin-2-ylamino)-5-methylphenyl)piperidin-1-yl)ethanone] registered a concentration for half-maximal inhibition (IC50) of 0.024 µM.

`Cc1cc(Nc2nc(Nc3cc(C)c(C4CCN(CCO)CC4)cc3C)ncc2Cl)n[nH]1` [Compound 23, 2-(4-(4-(5-chloro-4-(5-methyl-1H-pyrazol-3-ylamino)pyrimidin-2-ylamino)-2,5-dimethylphenyl)piperidin-1-yl)ethanol] showed a 50% inhibitory concentration (IC50) of 0.006 µM.

With `Cc1cc(Nc2nc(Nc3cc(C)c(C4CCN(Cc5c(C)noc5C)CC4)cc3F)ncc2Cl)n[nH]1` [Compound 19, 5-Chloro-N2-(4-(1-((3,5-dimethylisoxazol-4-yl)methyl)piperidin-4-yl)-2-fluoro-5-methylphenyl)-N4-(5-methyl-1H-pyrazol-3-yl)pyrimidine-2,4-diamine], the half-inhibitory concentration (IC50) is 0.056 µM.

Consider `Cc1cc(Nc2nc(Nc3cc(C)c(C4CCN(CC5CC5(F)F)CC4)cc3F)ncc2C(F)(F)F)n[nH]1` (centres unmarked) [Compound 251, N^2-(4-(1-((2,2-difluorocyclopropyl)methyl)piperidin-4-yl)-2-fluoro-5-methylphenyl)-N^4-(5-methyl-1H-pyrazol-3-yl)-5-(trifluoromethyl)pyrimidine-2,4-diamine], for which the half-maximal inhibitory concentration (IC50) was 0.052 µM.

The molecule `Cc1cc(Nc2nc(Nc3cc(C)c(C4CCNC(=O)C4)cc3C)ncc2Cl)n[nH]1` (centres unmarked) [Compound 151, 4-(4-(5-chloro-4-(5-methyl-1H-pyrazol-3-ylamino)pyrimidin-2-ylamino)-2,5-dimethylphenyl)piperidin-2-one] registered an IC50 of 0.009 µM.

The molecule `Cc1cc(Nc2nc(Nc3cc(C)c(C4CCN(C(=O)CCN5CCOCC5)CC4)cc3C)ncc2Cl)n[nH]1` [Compound 225, 1-(4-(4-(5-Chloro-4-(5-methyl-1H-pyrazol-3-ylamino)pyrimidin-2-ylamino)-2,5-dimethylphenyl)piperidin-1-yl)-3-morpholinopropan-1-one] yielded an IC50 of 0.017 µM.

With `Cc1cc(Nc2nc(Nc3cc(C)c(C4CCNC(C)C4)cc3F)ncc2Cl)n[nH]1` (centres unmarked) [Compound 273, 5-chloro-N2-(2-fluoro-5-methyl-4-(2-methylpiperidin-4-yl)phenyl)-N4-(5-methyl-1H-pyrazol-3-yl)pyrimidine-2,4-diamine], the half-maximal inhibitory concentration (IC50) was 0.018 µM.

Regarding `Cc1cc(Nc2nc(Nc3cc(C)c(C4CCN(Cc5noc(C)n5)CC4)cc3C)ncc2Cl)n[nH]1` [Compound 304, 5-chloro-N2-(2,5-dimethyl-4-(1-((5-methyl-1,2,4-oxadiazol-3-yl)methyl)piperidin-4-yl)phenyl)-N4-(5-methyl-1H-pyrazol-3-yl)pyrimidine-2,4-diamine], the concentration for half-maximal inhibition (IC50) is 0.005 µM.

Molecule `Cc1cc(Nc2nc(Nc3cc(C)c(C4CCCNC4)cc3C)ncc2Cl)n[nH]1` (centres unmarked) [Compound 15, 5-chloro-N2-(2,5-dimethyl-4-(piperidin-3-yl)phenyl)-N4-(5-methyl-1H-pyrazol-3-yl)pyrimidine-2,4-diamine] returned a concentration for half-maximal inhibition (IC50) of 0.05 µM.

`CCN1CCC(c2cc(C)c(Nc3ncc(Cl)c(Nc4cc(C5CC5)[nH]n4)n3)cc2C)CC1` [Compound 205, 5-chloro-N4-(5-cyclopropyl-1H-pyrazol-3-yl)-N2-(4-(1-ethylpiperidin-4-yl)-2,5-dimethylphenyl)pyrimidine-2,4-diamine] yielded a concentration for half-maximal inhibition (IC50) of 0.019 µM.
